Legend:
SW1 cells = assay: cells; assay type: cell-based, mouse; conditions: for Activity or EC50 (μM) in SW1 cells: active/inactive wording, concentration given in cell
Method: (§1) Cell lines. Mouse melanoma (SW1) and human melanoma (LU1205) cells were maintained in DMEM supplemented with 10% FBS, L-glutamine and antibiotics. The human melanoma cell lines MEWO and WM115 were maintained in RPMI supplemented with 10% FBS and antibiotics. Primary mouse melanocytes were cultured in F-12 media supplemented with 10% FBS, antibiotics, IBMX (isobuthyl-methylxantine), bovine pituitary extract, and TPA.
Mitochondrial activity and apoptosis. Cells were exposed to the chemicals for 12-48 hours as indicated in Results. To measure changes in mitochondrial activity reflective of general cell viability, the ATPLITE ATP detection assay was used according to the manufacturer's recommendations (Perkin Elmer). Apoptosis analysis was performed by flow cytometry of PI-stained cells. The percentage of cells to the left of the diploid G0/1 peak, characteristic of hypodiploid cells that have partially lost DNA, was calculated as percentage of apoptotic cells (Bhoumik et al., PNAS 101:4222-7, 2004). Analysis of changes in Caspase 8 expression pattern was performed using immunoblot analysis. […]
Characterization of CSL and AIGA effects on mouse melanoma cells. The structures of AIGA and CSL are depicted in FIGS. 1a and 1b. AIGA was tested for cytotoxicity at concentrations ranging between 0.1 and 2 μM, whereas CSL was used at a concentration of 0.01 to 0.3 μM. SW1 cells or normal melanocytes were seeded on 96 well plates and 24 h late, cells were treated with the indicated concentrations of ATF2 50-100 peptide, AIGA, or CSL for 20 h. ATF2 50-100 peptide (cloned in mammalian expression vector in frame with penetratin was transfected with the aid of lipofectamine) was used as a positive control. ATP levels were used as an indicator of cell viability and were measured using the ATPLITE ATP detection assay kit. The number of surviving cells upon AIGA treatment was normalized to the number of surviving cells under the control treatment, and the normalized number was designated as the “% Viability.” Results shown in FIGS. 1c-1f represent 3 experiments. Treatment of SW1 melanoma cells with 1 μM of AIGA reduced the viability of melanoma cells to 10%, (FIG. 1c). Treatment of the SW1 cells with 0.05 μM of CSL reduced the viability of melanoma cells to 50%, and 0.1 μM reduced it to 10% (FIG. 1d). […] Normal melanocytes and fibroblasts were used as a control.
Thus, the two compounds were evaluated to determine if they require JNK activity for their effects on melanoma cells. To this end, the ability of AIGA or CSL to affect the viability of melanoma cells in the presence of a JNK inhibitor was tested. SW1 cells, with or without a 30-minute pretreatment with the JNK inhibitor SP600125 (10 μM), were contacted with AIGA or CSL at the indicated concentrations for 20 h. ATP levels were used to measure the cell viability using the ATPLITE kit. The number of surviving cells upon AIGA or CSL treatment was normalized to the number of surviving cells under the control treatment, and the normalized number was designated as the “% Viability.” Shown are representative results from 2 experiments. […] Of note, inhibition of JNK activity was more pronounced at lower concentrations of CSL compared with AIGA. […] To assess whether these compounds affect JNK activity, changes in JNK phosphorylation on residues 183/185, which are required for its kinase activity, were monitored. Western blot analysis for JNK phosphorylation on residues 183/185 was performed on protein extracts that were prepared from cells treated with AIGA at concentrations of 0.5 μM, 1.0 μM, and 2.0 μM and a control with no AIGA treatment. Duplicate samples were treated with JNK inhibitor (SP600125). Total level of JNK was analyzed in parallel. […]

WM115 cells = assay: WM115 melanoma cell viability; assay type: cell-based, human; conditions: active/inactive wording, concentration given in cell
Method: as §1
(§2) Mitochondrial activity and apoptosis. Cells were exposed to the chemicals for 12-48 hours as indicated in Results. To measure changes in mitochondrial activity reflective of general cell viability, the ATPLITE ATP detection assay was used according to the manufacturer's recommendations (Perkin Elmer). Apoptosis analysis was performed by flow cytometry of PI-stained cells. The percentage of cells to the left of the diploid G0/1 peak, characteristic of hypodiploid cells that have partially lost DNA, was calculated as percentage of apoptotic cells (Bhoumik et al., PNAS 101:4222-7, 2004). Analysis of changes in Caspase 8 expression pattern was performed using immunoblot analysis.
The effects of CSL and AIGA on the human melanoma cell lines WM115 and MEWO were assessed. AIGA reduced the viability of the human melanoma cultures when added at a concentration of 0.5-2 μM (FIG. 5a and FIG. 5c) whereas CSL reduced their viability at a concentration of 0.1 μM-2 μM in WM115 cells (FIG. 5b) and 0.05 μM-2 μM in MeWO cells (FIG. 5d).

WM793 cells = assay: WM793 melanoma cell viability; assay type: cell-based, human; conditions: active/inactive wording, concentration given in cell
Method: as §2

[1] = test system: Human melanoma LU1205 cells; assay: LU1205 lung metastasis in nude mice; assay type: in vivo, mouse; conditions: compound every second day, analysis 60 days after injection
Method: (§3) Tumor growth and metastasis in vivo. GFP-expressing SW1 cells were trypsinized, resuspended in PBS, and injected subcutaneously (1×10^6) into the lower flank of 6 to 7-week-old mice. When tumors reached a size of about 50 mm^3, the indicated compounds (100 μL of the vehicle—10% DMSO, 70% Cremophor/ethanol (3:1), and 20% PBS and 1.0 mg/kg of celastrol or 0.5 mg/kg of the derivatives CA16, CA19) were injected i.p. every alternate day. Body weight and tumor growth were monitored every 2 days. GFP-expressing SW1 tumors were monitored in vivo on shaved mice with a light box illuminated by blue light fiber optics (Lightools Research; Encinitas, Calif.), and imaging was carried out with a digital camera (Nikon D100). Tumors were measured for up to 3 weeks. For metastases studies, LU1205 cells (1×10^6) were injected i.v. into the lateral tail vein of nude mice. At the end of the experiment, the lungs and tumors were excised and weighed. To detect metastatic lesions, lungs were fixed in formalin, embedded in paraffin and subjected to hematoxylin and eosin staining.
The effect of CSL and CSL derivatives, CA16 and CA19, on the metastatic capacity of melanoma cells was then determined. Human melanoma LU1205 cells were injected into the tail vein of nude mice, followed by administration of the compounds every second day. This approach allows monitoring of changes in the number of lesions formed on the lungs, a primary organ for tumor cell growth under this experimental approach. Analysis performed 60 days following injection determined changes in the number and size of metastatic lesions in each of the experimental groups.

[2] = Tolerability of administration to mice; assay type: in vivo, mouse; conditions: daily administration, doses up to 1 mg/kg
Method: (§4) To assess the ability of CSL and CSL derivatives to affect the tumorigenicity and metastasis of melanoma, the mouse SW1 cell lines were used in syngeneic models. Injection of SW1 melanoma cells subcutaneously into C3H mice was followed by daily injections of CSL intraperitoneally (IP). […] Briefly, SW1 cells that stably express GFP were injected s.c into C3H mice. When the tumor reached the size of 50 mm^3, the vehicle, CSL (1 mg/kg), CA16 (0.5 mg/kg) or CA19 (0.5 mg/kg) were administered i.p, every second day for a period of 24 days. Tumor size was measured at the indicated times. Data presented in FIG. 6b represents two experiments.

SW1 tumors = assay: SW1 tumor growth in syngeneic C3H mice; assay type: in vivo, mouse; conditions: 0.5 mg/kg i.p. every second day for 24 days
Method: as §3, §4

SW1 mouse melanoma = assay: SW1 metastatic lesions in syngeneic C3H mice; assay type: in vivo; conditions: SW1 cells s.c. in C3H mice
Method: as §3
To further assess the impact of these compounds on the development of metastatic lesions, the SW1 mouse melanoma model using the syngeneic C3H strain was employed. Subcutaneous injection of SW1 cells results in tumor formation at the site of injection followed by metastasis to different sites within 6-8 weeks.

## COc1ccc(CNC(=O)C2(C)CCC3(C)CCC4(C)C5=CC=C6C(=CC(=O)C(O)=C6C)C5(C)CCC4(C)C3C2)cc1 (centres unmarked) [CA01]
SW1 cells
  Activity or EC50 (μM) in SW1 cells: active

## CC1=C(O)C(=O)C=C2C1=CC=C1C2(C)CCC2(C)C3CC(C)(C(=O)NCc4ccccc4)CCC3(C)CCC12C (centres unmarked) [CA02]
WM115 cells
  Activity or EC50 (μM) in WM115 cells: inactive
SW1 cells
  Activity or EC50 (μM) in SW1 cells: inactive
WM793 cells
  Activity or EC50 (μM) in WM793 cells: inactive

## CC1=C(O)C(=O)C=C2C1=CC=C1C2(C)CCC2(C)C3CC(C)(C(=O)NCc4cccnc4)CCC3(C)CCC12C (centres unmarked) [CA03]
WM115 cells
  Activity or EC50 (μM) in WM115 cells: Inactive
SW1 cells
  Activity or EC50 (μM) in SW1 cells: active
WM793 cells
  Activity or EC50 (μM) in WM793 cells: inactive

## CC1=C(O)C(=O)C=C2C1=CC=C1C2(C)CCC2(C)C3CC(C)(C(=O)NC(C)C)CCC3(C)CCC12C (centres unmarked) [CA04]
SW1 cells
  Activity or EC50 (μM) in SW1 cells: active
WM793 cells
  Activity or EC50 (μM) in WM793 cells: inactive

## CC1=C(O)C(=O)C=C2C1=CC=C1C2(C)CCC2(C)C3CC(C)(C(=O)N(C)C)CCC3(C)CCC12C (centres unmarked) [CA05]
SW1 cells
  Activity or EC50 (μM) in SW1 cells: active
WM793 cells
  Activity or EC50 (μM) in WM793 cells: inactive

## CC1=C(O)C(=O)C=C2C1=CC=C1C2(C)CCC2(C)C3CC(C)(C(=O)N4CCCC4)CCC3(C)CCC12C (centres unmarked) [CA06]
SW1 cells
  Activity or EC50 (μM) in SW1 cells: active

## COCCNC(=O)C1(C)CCC2(C)CCC3(C)C4=CC=C5C(=CC(=O)C(O)=C5C)C4(C)CCC3(C)C2C1 (centres unmarked) [CA07]
WM115 cells
  Activity or EC50 (μM) in WM115 cells: inactive
SW1 cells
  Activity or EC50 (μM) in SW1 cells: active

## CC1=C(O)C(=O)C=C2C1=CC=C1C2(C)CCC2(C)C3CC(C)(C(=O)N4CCOCC4)CCC3(C)CCC12C (centres unmarked) [CA08]
WM115 cells
  Activity or EC50 (μM) in WM115 cells: inactive
SW1 cells
  Activity or EC50 (μM) in SW1 cells: inactive
WM793 cells
  Activity or EC50 (μM) in WM793 cells: inactive

## CNC(=O)C1(C)CCC2(C)CCC3(C)C4=CC=C5C(=CC(=O)C(O)=C5C)C4(C)CCC3(C)C2C1 (centres unmarked) [CA13]
WM115 cells
  Activity or EC50 (μM) in WM115 cells: inactive
WM793 cells
  Activity or EC50 (μM) in WM793 cells: inactive

## CC1=C(O)C(=O)C=C2C1=CC=C1C2(C)CCC2(C)C3CC(C)(C(=O)N4CCN(C)CC4)CCC3(C)CCC12C (centres unmarked) [CA14]
WM115 cells
  Activity or EC50 (μM) in WM115 cells: inactive
WM793 cells
  Activity or EC50 (μM) in WM793 cells: inactive

## COC(=O)COC(=O)C1(C)CCC2(C)CCC3(C)C4=CC=C5C(=CC(=O)C(O)=C5C)C4(C)CCC3(C)C2C1 (centres unmarked) [CA15]
SW1 cells
  Activity or EC50 (μM) in SW1 cells: Inactive

## CC1=C(O)C(=O)C=C2C1=CC=C1C2(C)CCC2(C)C3CC(C)(C(=O)OCc4ccccc4)CCC3(C)CCC12C (centres unmarked) [CA16]
[1]
  1-2 mm and mediastinal lesions: some activity was observed
  development of large lung lesions: no impact
[2]
  toxicity or discomfort in mice: did not result in toxicity or any noticeable discomfort
SW1 tumors
  decrease in tumor size: about 50%
SW1 mouse melanoma
  development of small sized lesions: opposite effect
  metastatic lesions: somewhat active

## CCOC(=O)C1(C)CCC2(C)CCC3(C)C4=CC=C5C(=CC(=O)C(O)=C5C)C4(C)CCC3(C)C2C1 (centres unmarked) [CA18]
SW1 cells; SW1 cells, compared with celastrol or other derivatives
  ability to induce melanoma cell death, in words: not that efficient in the SW1 melanoma cells compared to CA19

## CC1=C(O)C(=O)C=C2C1=CC=C1C2(C)CCC2(C)C3CC(C)(C(=O)OC(C)C)CCC3(C)CCC12C (centres unmarked) [CA19]
[1]
  growth of large, medium and small sized lesions in the lungs: efficient in inhibiting growth of large medium and small sized lesions in the lungs
[2]
  toxicity or discomfort in mice: did not result in toxicity or any noticeable discomfort
SW1 tumors
  reduction of tumor growth: 5 fold
SW1 mouse melanoma
  metastatic lesions: potently exhibit the ability to inhibit large as well as small metastatic lesions, with the exception of the 1-2 mm range

## Cc1c(O)c(O)cc2c1CC=C1[C@@]2(C)CC[C@@]2(C)[C@@H]3C[C@](C)(C(=O)O)CC[C@]3(C)CC[C@]12C [Dihydrocelastrol, dihydrocelastrol, reference compound]
SW1 cells
  Activity or EC50 (μM) in SW1 cells: inactive

## COC(=O)[C@]1(C)CC[C@]2(C)CC[C@]3(C)C4=CC=C5C(=CC(=O)C(O)=C5C)[C@]4(C)CC[C@@]3(C)[C@@H]2C1 [Pristimerin, pristimerin, reference compound]
SW1 cells; Mus musculus, numeric EC50 cells of the column, read-out: Activity or EC50 (μM) in SW1 cells
  EC50: < 0.1 µM

— US7888355B2, “Compositions and methods for inhibiting growth and metastasis of melanoma” (Burnham Institute for Medical Research, priority 2007, dated 2011)
